Test system: 648629-189-R-J1-PDC spheroids with HUVEC/MSC, viability
Assay: Anticancer human tumor 648629-189-R-J1-PDC patient-derived bladder carcinoma cell line growth inhibition [PI3K]
Details: for IC50: curve of first compound; for viability, T/C: stronger effect = lower value
Excerpt: Combinatorial screen of targeted agents with the PI3K inhibitors inavolisib, alpelisib, duvelisib, and copanlisib in multi-cell type tumor spheroids
A high-throughput screen of multi-cell type tumor spheroids was designed to identify active combinations of targeted small molecules and PI3K pathway inhibitors. Complex spheroids include a stromal component modeled by human endothelial cells (HUVEC) and fibroblasts modeled by human mesenchymal stem cells (MSCs). The concentration ranges selected for each drug and investigational agent were based upon clinically achievable concentrations if the clinical Cmax of the agent was known.
Compounds. The drugs and investigational agents: inavolisib (NSC800729), alpelisib (NSC765974), duvelisib (NSC772469), copanlisib (NSC816437), ipatasertib (NSC767898), afuresertib (NSC778305), talazoparib (NSC767125), sapanisertib (NSC764658), selumetinib (NSC741078), tovorafenib (DAY101, NSC766906), vemurafenib (NSC761431), ravoxertinib (NSC781343), sotorasib (NSC818433), MRTX1133 (NSC 836407), abemaciclib (NSC 768073), palbociclib (NSC758247), venetoclax (NSC 766270), SY5609 (NSC837396), enzalutamide (NSC755605), and darolutamide (NSC825331), were obtained from the National Cancer Institute (NCI) Developmental Therapeutics Program Chemical Repository. The FDA-approved anticancer drug set is available from the NCI Developmental Therapeutics Program. […] The stock solutions were prepared in dimethyl sulfoxide (DMSO, Sigma-Aldrich, St. Louis, MO, cat. D2650) at 800-fold the tested concentration and stored at -70 degrees C prior to their use. All drugs and investigational agents were tested over a range starting from a high concentration at or near the clinical Cmax and decreasing in half-log increments. If the clinical Cmax for an agent had not been determined, the highest concentration tested was 10 microM.
Cell Culture. All cells were maintained in an incubator at 37 degrees C and 5% CO2 with 95% humidity. The PDC lines were cultured according to standard operating procedures established by the NCI PDMR (https://pdmr.cancer.gov/sops/default.htm). All PDCs were thawed and cultured in Matrigel-coated flasks prepared with a working solution of 1X Ham's F-12 nutrient mix, without supplementation (Invitrogen, Waltham, MA, cat. 11765054), 100 U/mL penicillin-streptomycin (Invitrogen, cat. 15140122), and 2.5% Matrigel (Corning Inc., Corning, NY, cat. 354248) for the first three passages. The 354836-022-R-J1-PDC, 475296-252-R-J1-PDC, and 997726-040-R-J2-PDC lines were cultured in 6A media, which includes advanced DMEM/F-12 (Thermo Fisher Scientific, cat. 12634028), 10 mM HEPES (Thermo Fisher Scientific, cat. 15630080), 1X GlutaMAX supplement (Thermo Fisher Scientific, cat. 35050061), 0.1 mg/mL primocin (InvivoGen, San Diego, CA, cat. ant-pm-2), 10% defined fetal bovine serum, heat inactivated (HyClone Laboratories Inc., Logan, UT, cat. SH30070.03HI), 50% L-WRN conditioned media (ATCC, cat. CRL-3276), 1.25 mM N-Acetyl-L-cysteine (Sigma-Aldrich, cat. A9165), 10 mM nicotinamide (Sigma-Aldrich, cat. N0636), 1X B-27 supplement (Thermo Fisher Scientific, cat. 17504044), 1X N-2 supplement (Thermo Fisher Scientific, cat. 17502048), and 10 microM Y-27632 dihydrochloride (Tocris Bioscience, Bristol, United Kingdom, cat. 1254). The 624824-186-R-J2-PDC line was cultured in 6C/Colon 1B media, which includes all 6A media components plus 50 ng/mL human EGF recombinant protein (Thermo Fisher Scientific, cat. PHG0311). […]

[1] = second compound 0.00316 µM, first compound 0.0316 µM
[2] = second compound 0.00316 µM, first compound 0.1 µM
[3] = second compound 0.00316 µM, first compound 0.316 µM
[4] = second compound 0.00316 µM, first compound 1 µM
[5] = second compound 0.00316 µM, first compound 3.16 µM
[6] = second compound 0.00316 µM, first compound 10 µM
[7] = second compound 0.01 µM, first compound 0.0316 µM
[8] = second compound 0.01 µM, first compound 0.1 µM
[9] = second compound 0.01 µM, first compound 0.316 µM
[10] = second compound 0.01 µM, first compound 1 µM
[11] = second compound 0.01 µM, first compound 3.16 µM
[12] = second compound 0.01 µM, first compound 10 µM
[13] = second compound 0.0316 µM, first compound 0.0316 µM
[14] = second compound 0.0316 µM, first compound 0.1 µM
[15] = second compound 0.0316 µM, first compound 0.316 µM
[16] = second compound 0.0316 µM, first compound 1 µM
[17] = second compound 0.0316 µM, first compound 3.16 µM
[18] = second compound 0.0316 µM, first compound 10 µM
[19] = second compound 0.1 µM, first compound 0.0316 µM
[20] = second compound 0.1 µM, first compound 0.1 µM
[21] = second compound 0.1 µM, first compound 0.316 µM
[22] = second compound 0.1 µM, first compound 1 µM
[23] = second compound 0.1 µM, first compound 3.16 µM
[24] = second compound 0.1 µM, first compound 10 µM
[25] = second compound 0.316 µM, first compound 0.0316 µM
[26] = second compound 0.316 µM, first compound 0.1 µM
[27] = second compound 0.316 µM, first compound 0.316 µM
[28] = second compound 0.316 µM, first compound 1 µM
[29] = second compound 0.316 µM, first compound 3.16 µM
[30] = second compound 0.316 µM, first compound 10 µM
[31] = second compound 1 µM, first compound 0.0316 µM
[32] = second compound 1 µM, first compound 0.1 µM
[33] = second compound 1 µM, first compound 0.316 µM
[34] = second compound 1 µM, first compound 1 µM
[35] = second compound 1 µM, first compound 3.16 µM
[36] = second compound 1 µM, first compound 10 µM
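Further: spheroids exposed to agents for seven days before reading.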
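Wherever viability, T/C is given: percent of vehicle control luminescence where 100% = DMSO treated spheroids.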

Work on CC1(C)CCC(CN2CCN(c3ccc(C(=O)NS(=O)(=O)c4ccc(NCC5CCOCC5)c([N+](=O)[O-])c4)c(Oc4cnc5[nH]ccc5c4)c3)CC2)=C(c2ccc(Cl)cc2)C1 + CC(Nc1ccc2c(c1)OCCn1cc(N3C(=O)OCC3C(F)F)nc1-2)C(N)=O yielded an IC50 (second compound 0.00316 µM) of 4.77 µM, an IC50 (second compound 0.01 µM) of 4.84 µM and an IC50 (second compound 0.0316 µM) of 4.55 µM. The IC50 (second compound 0.1 µM) was 5.28 µM, the IC50 (second compound 0.316 µM) was 4.45 µM and the IC50 (second compound 1 µM) was 4.34 µM. It also gave a viability, T/C [1] of 101%, a viability, T/C [2] of 90.9% and a viability, T/C [3] of 92.9%. It also gave a viability, T/C [4] of 80.7%, a viability, T/C [5] of 76.7% and a viability, T/C [6] of 8.54%. It also gave a viability, T/C [7] of 122%, a viability, T/C [8] of 88.3% and a viability, T/C [9] of 106%. It also gave a viability, T/C [10] of 86%, a viability, T/C [11] of 80.7% and a viability, T/C [12] of 7.49%. The viability, T/C [13] was 110%, the viability, T/C [14] was 102% and the viability, T/C [15] was 98.2%. It also gave a viability, T/C [16] of 89.5%, a viability, T/C [17] of 71.3% and a viability, T/C [18] of 9.16%. For the same compound, the viability, T/C [19] was 84.5%, the viability, T/C [20] was 99.8% and the viability, T/C [21] was 90.5%. It also gave a viability, T/C [22] of 95.6%, a viability, T/C [23] of 83.8% and a viability, T/C [24] of 7.86%. For the same compound, the viability, T/C [25] was 74.7%, the viability, T/C [26] was 76% and the viability, T/C [27] was 79.4%. The viability, T/C [28] was 77.6%, the viability, T/C [29] was 67.5% and the viability, T/C [30] was 7.9%. The viability, T/C [31] was 74.2%, the viability, T/C [32] was 63.4% and the viability, T/C [33] was 62.5%. For the same compound, the viability, T/C [34] was 67.3%, the viability, T/C [35] was 65.7% and the viability, T/C [36] was 8.61%.
C[C@@H](NC(=O)c1ncnc(N)c1Cl)c1ncc(C(=O)Nc2cc(C(F)(F)F)c(Cl)cn2)s1 + CC(Nc1ccc2c(c1)OCCn1cc(N3C(=O)OCC3C(F)F)nc1-2)C(N)=O gave an IC50 (second compound 0.00316 µM) greater than 10 µM, an IC50 (second compound 0.01 µM) greater than 10 µM and an IC50 (second compound 0.0316 µM) greater than 10 µM. For the same compound, the IC50 (second compound 0.1 µM) was greater than 10 µM, the IC50 (second compound 0.316 µM) was greater than 10 µM and the IC50 (second compound 1 µM) was greater than 10 µM. The viability, T/C [1] was 106%, the viability, T/C [2] was 99.1% and the viability, T/C [3] was 112%. It also gave a viability, T/C [4] of 115%, a viability, T/C [5] of 108% and a viability, T/C [6] of 116%. The viability, T/C [7] was 111%, the viability, T/C [8] was 98.8% and the viability, T/C [9] was 115%. For the same compound, the viability, T/C [10] was 99.3%, the viability, T/C [11] was 112% and the viability, T/C [12] was 101%. It also gave a viability, T/C [13] of 109%, a viability, T/C [14] of 105% and a viability, T/C [15] of 97.4%. It also gave a viability, T/C [16] of 102%, a viability, T/C [17] of 106% and a viability, T/C [18] of 106%. For the same compound, the viability, T/C [19] was 103%, the viability, T/C [20] was 97.8% and the viability, T/C [21] was 105%. The viability, T/C [22] was 110%, the viability, T/C [23] was 98.3% and the viability, T/C [24] was 97.8%. For the same compound, the viability, T/C [25] was 94.8%, the viability, T/C [26] was 93.9% and the viability, T/C [27] was 83.7%. The viability, T/C [28] was 86.2%, the viability, T/C [29] was 96.2% and the viability, T/C [30] was 86.4%. For the same compound, the viability, T/C [31] was 76.2%, the viability, T/C [32] was 74.2% and the viability, T/C [33] was 69.3%. It also gave a viability, T/C [34] of 77.2%, a viability, T/C [35] of 78% and a viability, T/C [36] of 65.5%.
With Cn1ncnc1[C@H]1c2n[nH]c(=O)c3cc(F)cc(c23)N[C@@H]1c1ccc(F)cc1 + CC(Nc1ccc2c(c1)OCCn1cc(N3C(=O)OCC3C(F)F)nc1-2)C(N)=O the IC50 (second compound 0.00316 µM) was greater than 0.1 µM, the IC50 (second compound 0.01 µM) was greater than 0.1 µM and the IC50 (second compound 0.0316 µM) was greater than 0.1 µM. For the same compound, the IC50 (second compound 0.1 µM) was greater than 0.1 µM, the IC50 (second compound 0.316 µM) was greater than 0.1 µM and the IC50 (second compound 1 µM) was 0.0683 µM. It also gave a viability, T/C (second compound 0.00316 µM, first compound 0.000316 µM) of 108%, a viability, T/C (second compound 0.00316 µM, first compound 0.001 µM) of 110% and a viability, T/C (second compound 0.00316 µM, first compound 0.00316 µM) of 102%. The viability, T/C (second compound 0.00316 µM, first compound 0.01 µM) was 83.5%, the viability, T/C [1] was 75.6% and the viability, T/C [2] was 63.8%. The viability, T/C (second compound 0.01 µM, first compound 0.000316 µM) was 115%, the viability, T/C (second compound 0.01 µM, first compound 0.001 µM) was 106% and the viability, T/C (second compound 0.01 µM, first compound 0.00316 µM) was 97.3%. For the same compound, the viability, T/C (second compound 0.01 µM, first compound 0.01 µM) was 86.4%, the viability, T/C [7] was 69.4% and the viability, T/C [8] was 62%. The viability, T/C (second compound 0.0316 µM, first compound 0.000316 µM) was 101%, the viability, T/C (second compound 0.0316 µM, first compound 0.001 µM) was 99.2% and the viability, T/C (second compound 0.0316 µM, first compound 0.00316 µM) was 96%. The viability, T/C (second compound 0.0316 µM, first compound 0.01 µM) was 79.2%, the viability, T/C [13] was 82% and the viability, T/C [14] was 61.7%. The viability, T/C (second compound 0.1 µM, first compound 0.000316 µM) was 97.8%, the viability, T/C (second compound 0.1 µM, first compound 0.001 µM) was 93.4% and the viability, T/C (second compound 0.1 µM, first compound 0.00316 µM) was 105%. It also gave a viability, T/C (second compound 0.1 µM, first compound 0.01 µM) of 77.5%, a viability, T/C [19] of 70.2% and a viability, T/C [20] of 55.3%. The viability, T/C (second compound 0.316 µM, first compound 0.000316 µM) was 76%, the viability, T/C (second compound 0.316 µM, first compound 0.001 µM) was 86.7% and the viability, T/C (second compound 0.316 µM, first compound 0.00316 µM) was 73.3%. For the same compound, the viability, T/C (second compound 0.316 µM, first compound 0.01 µM) was 69.7%, the viability, T/C [25] was 60.9% and the viability, T/C [26] was 55.5%. For the same compound, the viability, T/C (second compound 1 µM, first compound 0.000316 µM) was 69.5%, the viability, T/C (second compound 1 µM, first compound 0.001 µM) was 60.5% and the viability, T/C (second compound 1 µM, first compound 0.00316 µM) was 69.2%. The viability, T/C (second compound 1 µM, first compound 0.01 µM) was 66%, the viability, T/C [31] was 61% and the viability, T/C [32] was 44.4%.

Source: PubChem BioAssay AID1963974 (Molecular Pharmacology Branch, DTP, NCI, 2024)
